Experimental data taken from PubChem BioAssay (NCI).
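Five concentrations, 48 hours, 96-well plates. GI50 marks 50% less growth. TGI is the concentration that stops growth completely.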

Columns and labels:
Assay in all cases: DTP human tumour cell line panel, 48 h; in the data active = GI50 below about 0.43 µM; inactive = the rest
[1] = system: NCI/ADR-RES ovarian
[2] = system: TK-10 renal
[3] = system: SF-268 CNS
[4] = system: IGROV1 ovarian
[5] = system: SR leukemia
[6] = system: CCRF-CEM leukemia
[7] = system: NCI-H23 lung
[8] = system: A498 renal
[9] = system: NCI-H460 lung
[10] = system: HOP-62 NSCLC
[11] = system: RXF 393 renal
[12] = system: T-47D breast
[13] = system: OVCAR-3 ovarian
[14] = system: SK-MEL-5 melanoma
[15] = system: SW-620 colon
[16] = system: MALME-3M melanoma
[17] = system: EKVX NSCLC
[18] = system: HL-60(TB) leukemia
[19] = system: MDA-MB-231 breast
[20] = system: A549 NSCLC
[21] = system: HCC-2998 colon
[22] = system: NCI-H522 lung
[23] = system: HCT-116 colon
[24] = system: UACC-257 melanoma
[25] = system: SF-295 CNS
[26] = system: DU-145 prostate
[27] = system: UACC-62 melanoma
[28] = system: U251 CNS
[29] = system: RPMI-8226 leukemia
[30] = system: ACHN renal
[31] = system: PC-3 prostate
[32] = system: SN12C renal
[33] = system: OVCAR-5 ovarian
[34] = system: OVCAR-8 ovarian
[35] = system: HCT-15 colon
[36] = system: MCF7 breast
[37] = system: SK-MEL-28 melanoma
[38] = system: HS 578T breast
[39] = system: LOX IMVI melanoma
[40] = system: KM12 colon
[41] = system: MDA-MB-435
[42] = system: K-562 leukemia
[43] = system: MOLT-4 leukemia
[44] = system: OVCAR-4 ovarian
[45] = system: 786-0 renal
[46] = system: SF-539 CNS
[47] = system: COLO 205 colon
[48] = system: BT-549 breast
[49] = system: SK-OV-3 ovarian
[50] = system: UO-31 renal
[51] = system: SK-MEL-2 melanoma
[52] = system: NCI-H226 lung
[53] = system: CAKI-1 renal
[54] = system: SNB-19 CNS
[55] = system: HOP-92 NSCLC
[56] = system: M14 melanoma
[57] = system: HT29 colon

COC(=O)[C@@H](Cc1ccccc1)NNC(=O)OC(C)(C)C
> 100 µM: TGI [1] | TGI [2] | TGI [3] | TGI [4] | TGI [5] | TGI [6] | TGI [7] | TGI [8] | TGI [9] | TGI [10] | TGI [11] | TGI [12] | TGI [13] | TGI [14] | TGI [15] | TGI [16] | TGI [17] | TGI [18] | TGI [19] | TGI [20] | TGI [21] | TGI [22] | TGI [23] | TGI [24] | TGI [25] | TGI [26] | TGI [27] | TGI [28] | TGI [29] | TGI [30] | TGI [31] | TGI [32] | TGI [33] | TGI [34] | TGI [35] | TGI [36] | TGI [37] | TGI [38] | TGI [39] | TGI [40] | TGI [41] | TGI [42] | TGI [43] | TGI [44] | TGI [45] | TGI [46] | TGI [47] | TGI [48] | TGI [49]

Nc1nc(N)c2cc(CNc3ccc(C(=O)NC(CC(=O)O)C(=O)O)cc3)ccc2n1 (stereo unspecified)
inactive: GI50 [11] > 100 µM | GI50 [12] > 100 µM | GI50 [13] 3.83 µM | GI50 [19] > 83.7 µM | GI50 [54] 2.16 µM | GI50 [55] > 41 µM | GI50 [24] > 100 µM | GI50 [29] 0.694 µM | GI50 [38] > 55.4 µM | GI50 [43] 0.825 µM | GI50 [44] > 100 µM | GI50 [47] 3.4 µM | GI50 [48] 0.429 µM | GI50 [49] 1.3 µM
> 82 µM: TGI [21]
active: GI50 [1] 0.126 µM | GI50 [50] 0.358 µM | GI50 [3] 0.174 µM | GI50 [4] 0.187 µM | GI50 [6] 0.0839 µM | GI50 [7] 0.311 µM | GI50 [9] 0.0492 µM | GI50 [10] 0.196 µM | GI50 [14] 0.34 µM | GI50 [15] 0.0432 µM | GI50 [18] 0.0325 µM | GI50 [53] 0.108 µM | GI50 [20] 0.0578 µM | GI50 [21] 0.281 µM | GI50 [23] 0.026 µM | GI50 [56] 0.119 µM | GI50 [25] 0.0611 µM | GI50 [26] 0.17 µM | GI50 [27] 0.218 µM | GI50 [28] 0.2 µM | GI50 [30] 0.18 µM | GI50 [32] 0.211 µM | GI50 [34] 0.104 µM | GI50 [35] 0.049 µM | GI50 [36] 0.0621 µM | GI50 [39] 0.0434 µM | GI50 [40] 0.0817 µM | GI50 [41] 0.0589 µM | GI50 [42] 0.0359 µM | GI50 [45] 0.103 µM | GI50 [46] 0.162 µM | GI50 [57] 0.0594 µM
> 87.7 µM: TGI [56]
> 100 µM: TGI [1] | TGI [50] | TGI [2] | TGI [3] | TGI [51] | TGI [4] | TGI [5] | TGI [6] | TGI [7] | TGI [8] | TGI [52] | TGI [9] | TGI [10] | TGI [11] | TGI [12] | TGI [13] | TGI [14] | TGI [15] | TGI [16] | TGI [17] | TGI [18] | TGI [19] | TGI [53] | TGI [20] | TGI [54] | TGI [55] | TGI [22] | TGI [23] | TGI [24] | TGI [26] | TGI [27] | TGI [28] | TGI [29] | TGI [30] | TGI [31] | TGI [32] | TGI [33] | TGI [34] | TGI [35] | TGI [36] | TGI [37] | TGI [38] | TGI [39] | TGI [40] | TGI [41] | TGI [42] | TGI [43] | TGI [44] | TGI [45] | TGI [46] | TGI [47] | TGI [48] | TGI [49] | TGI [57]
